One compound from ChEMBL document CHEMBL5375946, “Discovery of KB-0742, a Potent, Selective, Orally Bioavailable Small Molecule Inhibitor of CDK9 for MYC-Dependent Cancers” (J Med Chem, 2023) can be followed below.

The term fraction unbound denotes the share of the substance not bound to proteins or other matrix. Broadly, the amount remaining is what is left of the initial amount, in per cent. Read a low amount remaining as more turnover.

A short description of data set [1]: in vitro. Conditions: mouse, plasma.
The nature of data set [2]: in vitro. Conditions: dog, liver microsomes. A general note: Liver microsomes are vesicles of endoplasmic reticulum, rich in cytochrome P450 enzymes.
The nature of data set [3]: in vitro. The note with it: human, plasma.
Data set [4] can be described thus: in vitro. The note with it: rat, plasma.
A short description of data set [5]: in vitro. Conditions: dog, plasma.

Turning to `CCC(CC)c1cc(N[C@H]2CC[C@H](N)C2)n2nccc2n1` [ISTISOCICLIB], the fraction unbound at 10 µM in the data set “in vitro [1]” was 0.52; in the data set “in vitro [3]” it was 0.62; in the data set “in vitro [4]”, 0.59; in “in vitro [5]”, 0.28. This compound also registered a fraction remaining at 3 h in “in vitro [2]” of 68.8%.
